Data on 30 molecules can be found in patent US20250154140A1 (Sunnybrook Research Institute, priority 2022, published 2025).

What is called IC50 is the concentration that inhibits the measured activity by half.

BAX, sequence (Q07812 whole entry, the tested form may be a part): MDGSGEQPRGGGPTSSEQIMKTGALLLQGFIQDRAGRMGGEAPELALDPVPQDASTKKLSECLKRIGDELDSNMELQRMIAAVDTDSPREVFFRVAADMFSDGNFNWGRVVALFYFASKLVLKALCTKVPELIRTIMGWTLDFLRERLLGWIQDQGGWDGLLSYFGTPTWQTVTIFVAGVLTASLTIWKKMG

This test concerns the target BAX (Homo sapiens, UniProt Q07812). Briefly: SMAC mCherry assay in permeabilized Bax-/- Bak-/- BMK cells with recombinant Bax and cBid. It is filed as cell-based, mouse. As to conditions: 20 nM Bax, 0.5 nM cBid, 60-80 minutes; read-out: SMAC mCherry I.D IC50. Also noted: made in house; host or cells: Escherichia coli BL21-AI. The procedure:
Bax−/− Bak−/− double-knockout Baby Mouse Kidney (BMK) cells stably expressing a SMAC-(1-56)-mCherry fusion protein were cultured in DMEM complete (DMEM supplemented with 10% FBS and 1× Penicillin-Streptomycin) in 10 cm diameter tissue-culture treated dishes at 37° C. in a humidified incubator with 5% CO2 in air. Cells were washed with PBS, incubated with 1×Trypsin and resuspended in DMEM complete. Detached cells were seeded at 6000 cells per well in 50 uL DMEM complete into a 384 well Perkin-Elmer Phenoplate, incubated at room-temperature for 30 minutes followed by incubation overnight at 37° C. in a humidified incubator with 5% CO2 in air. Recombinant Bax and recombinant cBid were quickly thawed between fingers and 25 mM compound stocks in DMSO were thawed at room temperature. An 8 point titration curve of each compound was created in a 384-well source plate containing Trehalose-Hepes Buffer (THB, 135 mM trehalose, 50 mM KCl, 10 mM HEPES-KOH pH 7.4, 5 mM succinate, 20 uM EDTA, 20 uM EGTA, 0.1% BSA) supplemented with 1/1000 DRAQ5, 0.0025% digitonin, 20 nM Bax and 0.5 nM cBid. The source plate also contained control wells with THB supplemented with 1/1000 DRAQ5, 0.0025% digitonin plus 20 nM Bax (negative control) or 20 nM Bax and 0.5 nM cBid (positive control). Using the Vantage automated liquid handler, DMEM complete media was removed from the cells growing in the 384 well Phenoplate. The cells were washed 2× with 30 uL THB and then 25 uL from the 384 well source plate containing THB proteins and compounds was transferred to the cells growing in the 384 well plate. The cells were incubated for 60-80 minutes at 37 C in a humidified incubator with 5% CO2 in air and then imaged on the Opera Phenix Microscope. Two image channels were acquired: 1) DRAQ5 channel, to visualize nuclei and aid in cell segmentation and 2) SMAC-mCherry channel to visualize mitochondria that retain SMAC-mCherry. Data was processed using PerkinElmer Harmony software where the cells were segmented using the DRAQ5 channel and the mean intensity of SMAC-mCherry for each cell was calculated. The single-cell lobject level data was exported and then analyzed using R code. A per cell SMAC-mCherry intensity cutoff was calculated as 1.33 times the mean per cell SMAC-mCherry intensity of the THB+Bax control. Cells with a SMAC-mCherry intensity below or equal to the cutoff were scored as “released”. The percentage SMAC-mCherry release was calculated as the number of cells scored as “released” divided by the total amount of cells multiplied by 100. Dose-response curves were fit to a 4-parameter log-logistic model to determine the IC50 value for each compound.
With `O=C(CCCN1CCCCC1)Nc1ccc2ccnc(Nc3cc(Cl)c(Cl)cc3F)c2c1` [Compound 1-38, N-(1-((4,5-dichloro-2-fluorophenyl)amino)isoquinolin-7-yl)-4-(piperidin-1-yl)butanamide], the IC50 is 0.1 to 10 µM.

With `COc1cc2ccnc(Nc3cc(F)cc(Cl)c3)c2cc1NC(=O)CCCN1CCCCC1` [Compound 1-25, N-(1-((3-chloro-5-fluorophenyl)amino)-6-methoxyisoquinolin-7-yl)-4-(piperidin-1-yl)butanamide], the 50% inhibitory concentration (IC50) lay within 0.1 to 10 µM.

Turning to `COc1cccc(Nc2nccc3cc(OC)c(NC(=O)CCCN4CCCCC4)cc23)c1` [Compound 1-10, N-(6-methoxy-1-((3-methoxyphenyl)amino)isoquinolin-7-yl)-4-(piperidin-1-yl)butanamide], the IC50 is over 100 µM.

As for `O=C(CCCN1CCCCC1)Nc1ccc2ccnc(Nc3cc(Cl)c(F)c(Cl)c3)c2c1` [Compound 1-36, N-(1-((3,5-dichloro-4-fluorophenyl)amino)isoquinolin-7-yl)-4-(piperidin-1-yl)butanamide], the half-inhibitory concentration (IC50) lay within 0.1 to 10 µM.

As to `N#Cc1cccc(Nc2nccc3ccc(NC(=O)CCCN4CCCCC4)cc23)c1` [Compound 1-41, N-(1-((3-cyanophenyl)amino)isoquinolin-7-yl)-4-(piperidin-1-yl)butanamide], the half-maximal inhibitory concentration (IC50) lay within 11 to 50 µM.

With `COc1cc2ccnc(Nc3cc(Cl)c(F)c(Cl)c3)c2cc1NC(=O)CCCN1CCCCC1` [Compound 1-23, N-(1-((3,5-dichloro-4-fluorophenyl)amino)-6-methoxyisoquinolin-7-yl)-4-(piperidin-1-yl)butanamide], the IC50 lay in the range of 0.1 to 10 µM.

As for `O=C(CCCN1CCCCC1)Nc1cc2c(Nc3ccc(F)c(Cl)c3)nccc2cc1Cl` [Compound 1-26, N-(6-chloro-1-((3-chloro-4-fluorophenyl)amino)isoquinolin-7-yl)-4-(piperidin-1-yl)butanamide], the 50% inhibitory concentration (IC50) was 0.1 to 10 µM.

In the case of `COc1cc2ccnc(Nc3ccc(F)cc3)c2cc1NC(=O)CCCN1CCCCC1` [Compound 1-12, N-(1-((4-fluorophenyl)amino)-6-methoxyisoquinolin-7-yl)-4-(piperidin-1-yl)butanamide], the half-maximal inhibitory concentration (IC50) was 51 to 100 µM.

Regarding `O=C(CCCN1CCCCC1)Nc1ccc2ccnc(Nc3ccc(F)c(Cl)c3)c2c1` [Compound 1-18, N-(1-((3-chloro-4-fluorophenyl)amino)isoquinolin-7-yl)-4-(piperidin-1-yl)butanamide], the 50% inhibitory concentration (IC50) was in the range of 0.1 to 10 µM.

In the case of `COc1cc2ccnc(Nc3ccc(F)c(C(F)(F)F)c3)c2cc1NC(=O)CCCN1CCCCC1` [Compound 1-16, N-(1-((4-fluoro-3-(trifluoromethyl)phenyl)amino)-6-methoxyisoquinolin-7-yl)-4-(piperidin-1-yl)butanamide], the IC50 was 0.1 to 10 µM.

On to `COc1cc2ccnc(Nc3ccccc3)c2cc1NC(=O)CCCN1CCCCC1` [Compound 1-15, N-(6-methoxy-1-(phenylamino)isoquinoin-l7-yl)-4-(piperidin-1-yl)butanamide], for which the concentration for half-maximal inhibition (IC50) lay in the range of 51 to 100 µM.

With `COc1cc2ccnc(Nc3ccc(F)c(Cl)c3)c2cc1NC(=O)CCCN1CCC(F)(F)CC1` [Compound 1-8, N-(1-((3-chloro-4-fluorophenyl)amino)-6-methoxyisoquinolin-7-yl)-4-(4,4-difluoropiperidin-1-yl)butanamide], the concentration for half-maximal inhibition (IC50) was in the range of 0.1 to 10 µM.

For the molecule `COc1cc2ccnc(Nc3ccc(F)cc3Cl)c2cc1NC(=O)CCCN1CCCCC1` [Compound I-19, N-(1-((2-chloro-4-fluorophenyl)amino)-6-methoxyisoquinolin-7-yl)-4-(piperidin-1-yl)butanamide], the IC50 is 11 to 50 µM.

In the case of `COc1cc(NC(=O)CCCN2CCCCC2)cc2c(Nc3ccc(F)c(Cl)c3)nccc12` [Compound 1-29, N-(1-((3-chloro-4-fluorophenyl)amino)-5-methoxyisoquinolin-7-yl)-4-(piperidin-1-yl)butanamide], the IC50 fell in the range of 0.1 to 10 µM.

Turning to `COc1cc2ccnc(Nc3ccc(F)c(Cl)c3)c2cc1NC(=O)CCN1CCCC1` [Compound 1-42, N-(1-((3-chloro-4-fluorophenyl)amino)-6-methoxyisoquinolin-7-yl)-3-(pyrrolidin-1-yl)propanamide], the IC50 lay in the range of 11 to 50 µM.

For `O=C(CCCN1CCCCC1)Nc1ccc2ccnc(Nc3ccc(Cl)c(Cl)c3)c2c1` [Compound 1-35, N-(1-((3,4-dichlorophenyl)amino)isoquinolin-7-yl)-4-(piperidin-1-yl)butanamide], the concentration for half-maximal inhibition (IC50) is 0.1 to 10 µM.

For the molecule `COc1cc2ccnc(Nc3ccc(F)c(Cl)c3)c2cc1NC(=O)CCCN1CCN(C)CC1` [Compound 1-7, N-(1-((3-chloro-4-fluorophenyl)amino)-6-methoxyisoquinolin-7-yl)-4-(4-methylpiperazin-1-yl)butanamide], the 50% inhibitory concentration (IC50) lay in the range of 0.1 to 10 µM.

Turning to `COc1cc2ccnc(Nc3ccc(F)c(Cl)c3)c2cc1NC(=O)CCCCN1CCCCC1` [Compound 1-2, N-(1-((3-chloro-4-fluorophenyl)amino)-6-methoxyisoquinolin-7-yl)-5-(piperidin-1-yl)pentanamide], the IC50 was 0.1 to 10 µM.

For `O=C(CCCN1CCCCC1)Nc1ccc2ccnc(Nc3cccc(Cl)c3F)c2c1` [Compound 1-39, N-(1-((3-chloro-2-fluorophenyl)amino)isoquinolin-7-yl)-4-(piperidin-1-yl)butanamide], the 50% inhibitory concentration (IC50) was in the range of 0.1 to 10 µM.

For `COc1cc2ccnc(Nc3ccc(Cl)c(Cl)c3)c2cc1NC(=O)CCCN1CCCCC1` [Compound 1-27, N-(1-((3,4-dichlorophenyl)amino)-6-methoxyisoquinolin-7-yl)-4-(piperidin-1-yl)butanamide], the IC50 lay within 0.1 to 10 µM.

On to `COc1cc2ccnc(Nc3ccc(F)c(Cl)c3)c2cc1N(C)C(=O)CCCN1CCCCC1` [Compound 1-31, N-(1-((3-chloro-4-fluorophenyl)amino)-6-methoxyisoquinolin-7-yl)-N-methyl-4-(piperidin-1-yl)butanamide], for which the 50% inhibitory concentration (IC50) lay within 11 to 50 µM.

As for `COc1cc2ccnc(Nc3ccc(F)c(Cl)c3)c2cc1NC(=O)CCCN1CCOCC1` [Compound 1-6, N-(1-((3-chloro-4-fluorophenyl)amino)-6-methoxyisoquinolin-7-yl)-4-morpholinobutanamide], the IC50 fell in the range of 11 to 50 µM.

As to `O=C(CCCN1CCCCC1)Nc1ccc2ccnc(Nc3ccc(F)c(C(F)(F)F)c3)c2c1` [Compound 1-33, N-(1-((4-fluoro-3-(trifluoromethyl)phenyl)amino)isoquinolin-7-yl)-4-(piperidin-1-yl)butanamide], the half-inhibitory concentration (IC50) was in the range of 0.1 to 10 µM.

As for `COc1cc2ccnc(Nc3ccc(F)c(Cl)c3)c2cc1NC(=O)CCCN1C[C@@H](C)O[C@@H](C)C1` [Compound 1-5, N-(1-((3-chloro-4-fluorophenyl)amino)-6-methoxyisoquinolin-7-yl)-4-((2S,6R)-2,6-dimethylmorpholino)butanamide], the IC50 lay in the range of 0.1 to 10 µM.

For the molecule `COc1cc(Nc2nccc3cc(OC)c(NC(=O)CCCN4CCCCC4)cc23)ccc1F` [Compound 1-22, N-(1-((4-fluoro-3-methoxyphenyl)amino)-6-methoxyisoquinolin-7-yl)-4-(piperidin-1-yl)butanamide], the IC50 fell in the range of 11 to 50 µM.

Regarding `COc1ccc(Nc2nccc3cc(OC)c(NC(=O)CCCN4CCCCC4)cc23)cc1Cl` [Compound 1-24, N-(1-((3-chloro-4-methoxyphenyl)amino)-6-methoxyisoquinolin-7-yl)-4-(piperidin-1-yl)butanamide], the 50% inhibitory concentration (IC50) was in the range of 11 to 50 µM.

On to `COc1cc2ccnc(Nc3ccc(C)cc3)c2cc1NC(=O)CCCN1CCCCC1` [Compound 1-14, N-(6-methoxy-1-(p-tolylamino)isoquinolin-7-yl)-4-(piperidin-1-yl)butanamide], for which the IC50 lay in the range of 51 to 100 µM.

On to `COc1cc2ccnc(Nc3ccc(F)c(Cl)c3)c2cc1NC(=O)CCCN1CCCC1` [Compound 1-4], for which the 50% inhibitory concentration (IC50) lay within 0.1 to 10 µM.

For `COc1cc2ccnc(Nc3ccc(F)c(C(C)C)c3)c2cc1NC(=O)CCCN1CCCCC1` [Compound 1-30, N-(1-((4-fluoro-3-isopropylphenyl)amino)-6-methoxyisoquinolin-7-yl)-4-(piperidin-1-yl)butanamide], the IC50 lay within 11 to 50 µM.

Turning to `Cc1ccc(Nc2nccc3ccc(NC(=O)CCCN4CCCCC4)cc23)cc1Cl` [Compound 1-32, N-(1-((3-chloro-4-methylphenyl)amino)isoquinolin-7-yl)-4-(piperidin-1-yl)butanamide], the concentration for half-maximal inhibition (IC50) was in the range of 0.1 to 10 µM.
